Here are results for 1 compound from patent publication US6750220B2, “Amine salt of an integrin receptor antagonist” (Merck & Co., Inc., priority 2001, dated 2004).

Counter-ions that a name gives are not always drawn.

The data set can be described thus: solubility in water. Format: physicochemical. The settings on record: compared with the parent zwitterionic compound of structural formula IV.

On to `O=C(O)CC(CCCCCCc1ccc2c(n1)NCCC2)c1cncnc1` (stereo not shown) [TRIS salt, tris(hydroxymethyl)aminomethyl (“TRIS”) salt of 3-(pyrimidin-5-yl)-9-(5,6,7,8-tetrahydro-[1,8]-naphthyridin-2-yl)-nonanoic acid], for which the solubility in water result is given as “greater solubility in water than the parent zwitterionic compound”.
